Assays:
MK2 [1] = target: T1, MK2 (Homo sapiens, UniProt P49137); experiment: MK2 degradation in human SW1353 cells (MSD, 24 h); format: cell-based; parameters: endogenous in cells; host or cells: SW-1353 (ATCC HTB-94); conditions: for Dmax: read-out: MK2 MSD SW 1353 24 h Dmax %; for DC50: read-out: MK2 MSD SW1353 degradation 24 h GMean External Abs DC50
Method: MK2 Degradation in Human SW1353 Cells
The human chondrocyte cancer cell line SW-1353 (ATCC(HTB-94)) was cultured in 96 well plates (Corning 3894) at a density of 200,000 cells per well in 100 microlitres in complete growth medium of Leibovitz's L-15 Medium (Gibco) pus 10% fetal Bovine Serum (Corning) and Penicillin/Streptomycin (SolarBio) at 37 degrees Celsius. A serial dilution of each compound (usually 3 to 5 fold serial dilutions up to 10 separate concentration points) was added to individual wells from a 10 millimolar stock solution, at a background concentration of 0.1% DMSO and the cells were shaken at 600 rpm for 5 minutes and then were cultured for 24 hours at 37 degrees Celsius. Separately, a custom MSD (MesoScaleDiscovery, L15XA-3) plate for detection of human MK2 was prepared by coating the plate with the commercial AbCam ab247272 reagent in 1×Phosphate Buffered Saline at 40 microlitres per well and incubated at 4 degrees Celsius overnight. The next day, the MSD plate was washed with 150 microlitres of Tween buffered saline, blocked with MSD blocking buffer (3% Blocker A from MSD), and washed again.
(§1) The cell plate was centrifuged at 3,200 g for 5 minutes and the supernatant was discarded and 100 microlitres of RIPA lysis buffer (containing proteinase inhibitors, Boston BioProducts BP-115D) was added and the plate was sealed and shaken on ice for 20 minutes. The plate was centrifuged as before and 70 microlitres of sample lysate was added to the MSD plates and they were shaken at room temperature for 1 hour at 600 rpm. The MSD plate was washed 3 times as before and then the primary MK2 detection antibody (Santa Cruz sc-100393) was added at a final concentration of 1 microgram per ml at 25 microlitres per well and shaken at room temperature for 1 hour at 600 rpm.
(§2) After 3 more washes, the secondary detection antibody (SULFO-Tag anti rabbit antibody R32AB-5) was added at a final concentration of 1 microgram per ml at 25 microlitres per well and shaken at room temperature for 1 hour at 600 rpm. After 3 more washes, the 1×MSD (diluted from 5× concentrate with water) reading buffer was added at 150 microlitres per well and read on the MSD instrument Meso Sector S 600.
(§3) The inhibition/degradation curves and DC50 values were plotted and calculated using XL Fit (version v5.3.1.3) using equation 201 and a 4 parameter logistic model whereby fit=(A+((B−A)/(1+((x/C)D))) where A is the Bottom and B is the Top and C is the IC50 and D is the slope and high C is the signal for the DMSO treated cells and Low C is the signal is the signal for the lysis buffer.

MK2 [2] = target: T1, MK2; experiment: MK2 degradation in human THP-1 monocytic cells (MSD, 24 h); format: cell-based; parameters: endogenous in cells; conditions: for Dmax: THP-1, THP-1 cells; for DC50: THP-1 cells, read-out: MK2 MSD THP-1 degradation 24 h GMean External Abs DC50
Method: MK2 Degradation in Human THP-1 Monoctyic Cells
The human monocytic cancer cell line THP-1 (ATCC (TIB-202)) was cultured in 96 well plates (Corning 3894) at a density of 200,000 cells per well in 100 microlitres in complete growth medium of RPMI 1640 (Gibco) pus 10% fetal Bovine Serum (Corning) and Penicillin/Streptomycin (SolarBio) at 37 degrees Celsius and 5% CO2. A serial dilution of each compound (usually 3 to 5 fold serial dilutions up to 10 separate concentration points) was added to individual wells from a 10 millimolar stock solution, at a background concentration of 0.1% DMSO and the cells were shaken at 600 rpm for 5 minutes and then were cultured for 24 hours at 37 degrees Celsius and 5% carbon dioxide. Separately, a custom MSD (MesoScaleDiscovery, L15XA-3) plate for detection of human MK2 was prepared by coating the plate with the commercial AbCam ab247272 reagent in 1×Phosphate Buffered Saline at 40 microlitres per well and incubated at 4 degrees Celsius overnight. The next day, the MSD plate was washed with 150 microlitres of Tween buffered saline, blocked with MSD blocking buffer (3% Blocker A from MSD), and washed again.
as §1, §2, §3

T1 sequence (P49137 whole entry): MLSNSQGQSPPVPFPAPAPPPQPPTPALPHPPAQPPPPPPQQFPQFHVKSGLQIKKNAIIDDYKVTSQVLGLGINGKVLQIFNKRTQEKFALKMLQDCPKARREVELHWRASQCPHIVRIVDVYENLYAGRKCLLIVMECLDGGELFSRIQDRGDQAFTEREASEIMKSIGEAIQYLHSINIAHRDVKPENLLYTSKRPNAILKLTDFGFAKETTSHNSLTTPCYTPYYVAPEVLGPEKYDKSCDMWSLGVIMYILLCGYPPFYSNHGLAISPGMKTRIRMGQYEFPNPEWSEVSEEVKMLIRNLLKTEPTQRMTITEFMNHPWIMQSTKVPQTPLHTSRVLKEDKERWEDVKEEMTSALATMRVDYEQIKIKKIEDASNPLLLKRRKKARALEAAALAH

Structure (SMILES)	Dmax (MK2 [1]) [%]	DC50 (MK2 [1]) [nM]	Dmax (MK2 [2]) [%]	DC50 (MK2 [2]) [nM]
C[C@@H]1CNc2c(sc3ccc4nc(-c5cncc(C6CCN(CCCCCCCCc7cccc8c7n(C)c(=O)n8C7CCC(=O)NC7=O)CC6)c5)ccc4c23)C(=O)N1 (stereo partly drawn) [Compound I-103]	> 75	1 to 10	> 75	< 1
C[C@@H]1CNc2c(sc3ccc4nc(-c5cccc(C6CCN(CCN7CCC(CCc8cccc9c8n(C)c(=O)n9C8CCC(=O)NC8=O)CC7)CC6)c5)ccc4c23)C(=O)N1 (stereo partly drawn) [Compound I-104]	> 75	10 to 100	> 75	1 to 10
C[C@@H]1CNc2c(sc3ccc4nc(-c5cccc(N6CCN(CCN7CCC(CCc8cccc9c8n(C)c(=O)n9C8CCC(=O)NC8=O)CC7)CC6)c5)ccc4c23)C(=O)N1 (stereo partly drawn) [Compound I-105]	> 75	1 to 10	> 75	< 1
C[C@@H]1CNc2c(sc3ccc4nc(-c5cccc(N6CCC(CN7CCC(CCc8cccc9c8n(C)c(=O)n9C8CCC(=O)NC8=O)CC7)CC6)c5)ccc4c23)C(=O)N1 (stereo partly drawn) [Compound I-106]	> 75	1 to 10	> 75	< 1
C[C@@H]1CNc2c(sc3ccc4nc(-c5cccc(N6CCC(CN7CCN(CCc8cccc9c8n(C)c(=O)n9C8CCC(=O)NC8=O)CC7)CC6)c5)ccc4c23)C(=O)N1 (stereo partly drawn) [Compound I-107]	> 75	1 to 10	> 75	< 1
C[C@@H]1CNc2c(sc3ccc4nc(-c5cccc(N6CCN(CCCc7ccc8c(c7)n(C)c(=O)n8C7CCC(=O)NC7=O)CC6)c5)ccc4c23)C(=O)N1 (stereo partly drawn) [Compound I-118]	> 75	< 1	> 75	< 1
C[C@@H]1CNc2c(sc3ccc4nc(-c5ccc(N6CCC(CN7CCC(c8ccc9c(c8)n(C)c(=O)n9C8CCC(=O)NC8=O)CC7)CC6)cc5)ccc4c23)C(=O)N1 (stereo partly drawn) [Compound I-119]	> 75	< 1	> 75	< 1
Cn1c(=O)n(C2CCC(=O)NC2=O)c2cccc(N3CCC(CN4CCN(c5ccc(-c6cc(-c7cc8c([nH]7)CCNC8=O)ccn6)cc5)CC4)CC3)c21 (stereo not drawn) [Compound I-120]	> 75	1 to 10	> 75	1 to 10
Cn1c(=O)n(C2CCC(=O)NC2=O)c2ccc(CCCN3CCN(c4cccc(-c5ccc(-c6cc7c([nH]6)CCNC7=O)cn5)c4)CC3)cc21 (stereo not drawn) [Compound I-121]	< 50	> 100	< 50	> 100
C[C@@H]1CNc2c(sc3ccc4nc(-c5ccc(C6CCN(CC7CCN(c8cccc9c8n(C)c(=O)n9C8CCC(=O)NC8=O)CC7)CC6)nc5)ccc4c23)C(=O)N1 (stereo partly drawn) [Compound I-122]	> 75	< 1	> 75	< 1
C[C@@H]1CNc2c(sc3ccc4nc(-c5ccc(N6CCN(CC7CCN(c8cccc9c8n(C)c(=O)n9C8CCC(=O)NC8=O)CC7)CC6)nc5)ccc4c23)C(=O)N1 (stereo partly drawn) [Compound I-125]	> 75	< 1	> 75	< 1
C[C@@H]1CNc2c(sc3ccc4nc(-c5ccc(N6CCN(CC7CCN(c8cccc9c8n(C)c(=O)n9C8CCC(=O)NC8=O)CC7)CC6)cc5)ccc4c23)C(=O)N1 (stereo partly drawn) [Compound I-126]	> 75	1 to 10	> 75	1 to 10
C[C@@H]1CNc2c(sc3ccc4nc(-c5ccc(N6CCN(CCC7CCN(c8cccc9c8n(C)c(=O)n9C8CCC(=O)NC8=O)CC7)CC6)cc5)ccc4c23)C(=O)N1 (stereo partly drawn) [Compound I-127]	> 75	1 to 10	> 75	1 to 10
C[C@@H]1CNc2c(sc3ccc4nc(-c5ccc(N6CCC(CCN7CCN(c8cccc9c8n(C)c(=O)n9C8CCC(=O)NC8=O)CC7)CC6)cc5)ccc4c23)C(=O)N1 (stereo partly drawn) [Compound I-128]	> 75	1 to 10	> 75	1 to 10
C[C@@H]1CNc2c(sc3ccc4nc(-c5ccc(N6CCN(CC7CCN(c8ccc9c(c8)n(C)c(=O)n9C8CCC(=O)NC8=O)CC7)CC6)nc5)ccc4c23)C(=O)N1 (stereo partly drawn) [Compound I-129]	> 75	< 1	> 75	< 1
C[C@@H]1CNc2c(sc3ccc4nc(-c5ccc(N6CCN(CC7CCN(c8ccc9c(c8)n(C)c(=O)n9C8CCC(=O)NC8=O)CC7)CC6)cc5)ccc4c23)C(=O)N1 (stereo partly drawn) [Compound I-130]	> 75	< 1	> 75	< 1
C[C@@H]1CNc2c(sc3ccc4nc(-c5ccc(N6CCC(CCN7CCN(c8ccc9c(c8)n(C)c(=O)n9C8CCC(=O)NC8=O)CC7)CC6)cc5)ccc4c23)C(=O)N1 (stereo partly drawn) [Compound I-131]	> 75	< 1	> 75	< 1
Cn1c(=O)n(C2CCC(=O)NC2=O)c2cccc(CCCN3CCN(c4ccc(F)c(-c5cc(-c6cc7c([nH]6)CCNC7=O)ccn5)c4)CC3)c21 (stereo not drawn) [Compound I-133]	< 50	> 100	< 50	> 100
Cn1c(=O)n(C2CCC(=O)NC2=O)c2cccc(CCCCCN3CCN(c4ccc(F)c(-c5cc(-c6cc7c([nH]6)CCNC7=O)ccn5)c4)CC3)c21 (stereo not drawn) [Compound I-134]	< 50	> 100	< 50	> 100
Cn1c(=O)n(C2CCC(=O)NC2=O)c2cccc(CCCCCCCN3CCN(c4ccc(F)c(-c5cc(-c6cc7c([nH]6)CCNC7=O)ccn5)c4)CC3)c21 (stereo not drawn) [Compound I-135]	< 50	> 100	< 50	> 100
Cn1c(=O)n(C2CCC(=O)NC2=O)c2cccc(C3CCN(CC4CCN(c5ccc(-c6cc(-c7cc8c([nH]7)CCNC8=O)ccn6)c(F)c5)CC4)CC3)c21 (stereo not drawn) [Compound I-137]	> 75	< 1	> 75	1 to 10
Cn1c(=O)n(C2CCC(=O)NC2=O)c2cccc(N3CCC(CN4CCN(c5ccc(-c6cc(-c7cc8c([nH]7)CCNC8=O)ccn6)cn5)CC4)CC3)c21 (stereo not drawn) [Compound I-138]	> 75	< 1	> 75	< 1
Cn1c(=O)n(C2CCC(=O)NC2=O)c2cccc(N3CCC(CCN4CCN(c5ccc(-c6cc(-c7cc8c([nH]7)CCNC8=O)ccn6)cc5)CC4)CC3)c21 (stereo not drawn) [Compound I-139]	> 75	1 to 10	> 75	< 1
Cn1c(=O)n(C2CCC(=O)NC2=O)c2ccc(N3CCC(CN4CCN(c5ccc(-c6cc(-c7cc8c([nH]7)CCNC8=O)ccn6)cn5)CC4)CC3)cc21 (stereo not drawn) [Compound I-141]	> 75	< 1	> 75	< 1
